# Experimental data published in patent US12134769B2, “MicroRNA-198 as a tumor suppressor in ovarian cancer” (Baylor College of Medicine, priority 2011, dated 2024).
# What was measured:
# MIA-MSLN cells = experiment: NF-κB inhibitor assay, expression by real-time RT-PCR and western blot; type: cell-based, human
# Description: Western blots were performed as previously described (Li et al., 2008). Membranes were probed with: anti-MSLN monoclonal antibody (1:1000) (Abcam); PBX-1 polyclonal antibody (1:1000) and Caspase 3 antibody (1:1000) (Cell Signaling); OCT-2 polyclonal antibody (1:400), and VCP polyclonal antibody (1:200) (Santa Cruz Biotechnology); or anti-β-actin, Tubulin, LaminA or GAPDH antibodies (1:10,000) (Sigma Aldrich). Secondary incubation was performed with horseradish peroxidase-linked secondary antibody (1:2,000) (anti-mouse, anti-goat or anti-rabbit) (Cell Signaling).
# Differential expression of 95 miRNAs chosen for their potential roles in cancer, cell development, and apoptosis was analyzed by RT-PCR using the QuantiMir System from SBI System Biosciences in both MIA-V and MIA-MSLN cells. The array plate also included the U6 transcript as a normalization signal. cDNAs from different cell lines and tissue samples were mixed with SYBR® Green Mastermix (Bio-Rad Laboratories) plus the universal reverse primer. Specific primers (1 μl) were added to each well of the qPCR plate. Expression levels of each mature miRNA were evaluated using comparative threshold cycle (Ct) method as normalized to that of U6 (2—ΔCt). The expression level of miR-198 was measured in all subsequent experiments using the same method. Real-time RT PCR was performed as previously described for MSLN, ZEB1, PBX-1, and VCP (Li et al., 2008). The primer sequences used are as follows:
# MIA-MSLN and MIA-V control cells were treated with 0, 12.5 or 25 μM of the IKK inhibitor Wedelolactone (Calbiochem). The cells were collected after 72 h and protein, RNA, and miRNA extracts were prepared and assayed accordingly.
# AsPC1 cells = experiment: NF-κB inhibitor assay, OCT-2 expression; type: cell-based, human; details: FIG. 11B
compound,measurement,setting,value
COc1cc(O)c2c(c1)oc(=O)c1c3cc(O)c(O)cc3oc21 [Wedelolactone],ZEB1 expression,MIA-MSLN cells; MIA-MSLN cells,completely blocked ZEB1 expression
same,increase in miR-198 expression,"MIA-MSLN cells; MIA-MSLN cells, compared to untreated controls, 72 h",~17 fold
same,OCT-2 expression,"MIA-MSLN cells; MIA-MSLN cells, mRNA and protein levels",almost complete block in OCT-2 expression
same,PBX-1 expression,"MIA-MSLN cells; Wedelolactone inhibition of NF-κB, FIG. 3F",downregulation of PBX-1 expression
same,OCT-2 expression,AsPC1 cells,OCT-2 expression is blocked
